Data set [1] has as its system 5-HT-induced contractions in guinea pig ileum. The data set can be described thus: Inhibition of 5-HT-induced contractions in guinea pig ileum (Assay 3). As to conditions: Cavia porcellus, 5-HT 2.6 μM, read-out: Inhibition of 5-HT-induced contraction (%). On the procedure:
(§1) Duncan Hartley derived male guinea pigs (325±25 g) were suppressed by CO2 overexposure, the abdominal cavity was exposed and ileal segments were removed. Small strips of ileum were suspended in organ baths containing Krebs solution (composition in g/l: NaCl 6.89, KCl 0.35, CaCl2 0.277, KH2PO4 0.163, MgSO4.7H2O 0.296, NaHCO3 2.1 glucose 1.8). The solution was kept at 32° C. and gassed with O2 (95%)-CO2 (5%) to maintain pH at 7.4. Mechanical activity was recorded by means of isotonic transducers. A resting tension of 1 g was applied to muscle strips before being equilibrated for 1 h, prior to test compound addition. Each preparation was washed twice at 15 min intervals during the equilibration.
(§2) Histamine (1.7 μM; approximately EC60-70) or 5-hydroxytryptamine (5-HT, 2.6 μM; approximately EC60-70) was applied for 5 min and the amplitude of the contraction recorded. The histamine or 5-HT was then washed out until the ileal tissue returned to baseline. Five min after returning to baseline test compound (3 and 30 μM) was applied and the amplitude of the contraction (if any) was recorded. In the continuous presence of test compound, histamine or 5-HT was re-applied and the inhibition of the response was recorded.

Data set [2] relates to α-smooth muscle actin (α-SMA) mRNA. The data set can be described thus: Anti-remodelling activity in human lung fibroblasts (HFL1): TGFβ-induced α-SMA mRNA (Assay 4). As to conditions: Homo sapiens, HFL1 cells, TGFβ 10 ng/ml, 24 h, read-out: Inhibition of α-SMA mRNA synthesis (%). The data set is classed as cell-based. As to the method:
A human foetal lung fibroblast cell line (HFL1 cells; ATCC accession number CCl-153) was used in this assay. The cells were cultured in medium containing a low level of foetal bovine serum (FBS; 0.1%) for 24 h. After 24 h of culturing the medium was changed to: (a) Control medium (medium containing 10% FBS, 1% phosphate saline and 0.5 mM L-glutamine), (b) Control medium and transforming growth factor beta (TGFβ; 10 ng/ml), (c) Control medium and TGFβ and test compounds (3 and 30 μM). The medium was collected after 24 h and the total mRNA extracted in Tri-reagent. The level of mRNA coding for α-smooth muscle actin (α-SMA) was assessed by real-time reverse transcription-polymerase chain reaction (rtRT-PCR) using primer couples that allow the amplification of α-SMA mRNA. Liver glyceraldehydes 3-phosphate dehydrogenase (GADPH) was used as a reference marker in this experiment. The inhibition of the TGTβ-induced overexpression of α-SMA mRNA by the test compounds was quantified.

The target in data set [3] is T1, 5-lipoxygenase (Homo sapiens, UniProt P09917).
T1 construct: endogenous in cells; host or cells: human peripheral blood mononuclear leukocytes (PBMLs)
T1 sequence (P09917 1-674): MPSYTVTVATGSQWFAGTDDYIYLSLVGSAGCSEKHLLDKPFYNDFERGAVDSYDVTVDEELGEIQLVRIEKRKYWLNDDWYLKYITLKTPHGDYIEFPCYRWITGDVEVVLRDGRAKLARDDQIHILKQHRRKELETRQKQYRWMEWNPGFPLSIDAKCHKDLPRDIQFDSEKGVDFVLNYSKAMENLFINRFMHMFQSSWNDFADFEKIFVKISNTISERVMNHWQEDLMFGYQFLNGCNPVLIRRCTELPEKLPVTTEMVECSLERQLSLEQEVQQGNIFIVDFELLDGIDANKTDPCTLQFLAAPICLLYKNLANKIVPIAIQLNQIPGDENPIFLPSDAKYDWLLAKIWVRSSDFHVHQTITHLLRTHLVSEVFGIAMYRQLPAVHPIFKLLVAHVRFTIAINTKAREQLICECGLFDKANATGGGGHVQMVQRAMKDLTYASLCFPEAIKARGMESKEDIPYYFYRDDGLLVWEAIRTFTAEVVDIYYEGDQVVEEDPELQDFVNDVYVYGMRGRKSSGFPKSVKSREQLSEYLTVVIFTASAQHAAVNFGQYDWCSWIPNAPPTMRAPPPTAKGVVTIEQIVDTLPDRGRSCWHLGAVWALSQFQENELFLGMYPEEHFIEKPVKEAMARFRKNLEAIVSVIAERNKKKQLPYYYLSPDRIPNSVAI
Briefly: 5-lipoxygenase activity (LTB4) in human peripheral blood mononuclear leukocytes (Assay 6). The data set is classed as cell-based. The conditions noted are these: human PBMLs, A23187 30 μM, read-out: Inhibition of 5-LO (%). As to the method:
Human peripheral blood mononuclear leukocytes (PBMLs) were isolated using a Ficoll-Paque density gradient. Human peripheral blood mononuclear leukocytes (5×10^6 cells) were incubated with A23187 (30 μM), a divalent cation ionophore used to initiate the biosynthesis of […], and with vehicle (0.1% DMSO) or test compound (3 and 30 μM) in Hank's balanced salt solution (HBBS) buffer, pH 7.4 at 37° C. for 15 min. The PBML solution was neutralized with NaOH (1 N) and centrifuged at 1000 g for 10 min and the supernatant collected. The concentration of leukotriene B4 (LTB4) in the supernatant was measured using an enzyme immunoassay kit (Assay Design Inc.). A reduction in the concentration of LTB4 indicated an inhibition of the enzyme 5-lipoxygenase (Table 11).

The subject of data set [4] is IL-1α-induced PGE2 release. Briefly: IL-1α-induced PGE2 release in human diploid lung fibroblasts (WI-38) (Assay 5). It counts as cell-based. As to conditions: Homo sapiens, WI-38 cells, IL-1α 1 nM, overnight. As to the method:
(§3) Human diploid lung fibroblasts (WI-38 cells) were incubated overnight in the presence of IL-1α (1 nM) and test compound (3 and 30 μM) in modified Eagle medium at pH 7.3 containing foetal bovine serum (10%) at 37° C. The supernatant was assayed by radioimmunoassay for released PGE2 and the inhibition of PGE2 by test compound calculated (Table 10). The viability of the cells was then assessed by washing with Roswell Park Memorial Institute medium and adding Alamar Blue reagent before being incubated at 37° C. for 4 h. Living cells take up Alamar Blue and emit fluorescence when excited. Fluorescence intensity was measured using a SpectroFluor Plus plate reader with excitation at 530 nm and emission at 590 nm (Table 10).

Data set [5] concerns WI-38 cells. The data set can be described thus: Viability of WI-38 cells, Alamar Blue (Assay 5). The data set is classed as cell-based, human. As to the method: as §3
The test system of data set [6] is histamine-induced contractions in guinea pig ileum. The data set can be described thus: Inhibition of histamine-induced contractions in guinea pig ileum (Assay 3). As to conditions: Cavia porcellus, histamine 1.7 μM, read-out: Inhibition of histamine-induced contraction (%). As to the method: as §1, §2
Data set [7] concerns the target TRPV1 receptor (Rattus norvegicus, UniProt O35433). Briefly: TRPV1 modulation in DRG neurones: CGRP release in absence and presence of capsaicin (Assay 2). It counts as cell-based. Details: The culture used for this experiment contained sensory neurones, Schwann cells and fibroblasts; endogenous in cells; host or cells: primary rat DRG sensory neurone culture (with Schwann cells and fibroblasts). The conditions noted are these: 20 min; for inhibition at 3 µM: 3 μM with capsaicin 1 μM; for inhibition at 3 µM / inhibition at 30 µM: −ve: inhibition, +ve: potentiation of capsaicin response, read-out: Effect of test compounds on capsaicin (1 μM)-induced CGRP release (%); for inhibition at 30 µM: 30 μM with capsaicin 1 μM; for Emax at 3 µM: test compound alone 3 μM; for Emax at 3 µM / Emax at 30 µM: rat DRG sensory neurones, read-out: CGRP release (% of capsaicin (1 μM) response); for Emax at 30 µM: test compound alone 30 μM.

Sequence of TRPV1 receptor (O35433 whole entry): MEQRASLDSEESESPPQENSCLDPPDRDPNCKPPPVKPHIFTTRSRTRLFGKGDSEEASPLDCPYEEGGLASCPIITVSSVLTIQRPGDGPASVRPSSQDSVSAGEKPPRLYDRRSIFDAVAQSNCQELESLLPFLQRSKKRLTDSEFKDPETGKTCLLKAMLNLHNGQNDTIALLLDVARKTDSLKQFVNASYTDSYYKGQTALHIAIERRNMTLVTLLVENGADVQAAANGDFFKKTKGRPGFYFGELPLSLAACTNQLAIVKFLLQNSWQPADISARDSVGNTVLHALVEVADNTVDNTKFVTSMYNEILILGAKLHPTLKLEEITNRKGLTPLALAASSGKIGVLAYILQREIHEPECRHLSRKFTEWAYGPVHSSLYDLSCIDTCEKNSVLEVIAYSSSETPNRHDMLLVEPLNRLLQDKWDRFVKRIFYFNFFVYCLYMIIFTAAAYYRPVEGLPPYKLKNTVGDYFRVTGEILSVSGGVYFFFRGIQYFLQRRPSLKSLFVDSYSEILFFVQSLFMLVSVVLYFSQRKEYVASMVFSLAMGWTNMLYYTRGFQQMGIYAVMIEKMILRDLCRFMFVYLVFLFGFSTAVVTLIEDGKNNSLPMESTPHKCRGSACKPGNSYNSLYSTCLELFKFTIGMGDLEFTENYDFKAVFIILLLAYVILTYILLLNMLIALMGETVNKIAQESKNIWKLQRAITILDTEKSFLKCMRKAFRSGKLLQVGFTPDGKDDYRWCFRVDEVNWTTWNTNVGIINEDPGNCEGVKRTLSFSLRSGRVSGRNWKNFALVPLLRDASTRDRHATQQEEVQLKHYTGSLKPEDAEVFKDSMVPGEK

With `COc1cc(CCC(=O)CC(=O)Cc2cccc3ccccc23)ccc1O` [Compound 29, 6-(4-Hydroxy-3-methoxyphenyl)-1-naphthalen-1-yl-hexane-2,4-dione], the inhibition at 3 µM came to 5% in data set [1]; 33% in data set [2]; 47% in data set [3]; 86% in data set [4]; 17% in data set [6]; 46% in data set [7]. In addition, the inhibition at 30 µM is 86% in data set [2]; 98% in data set [3]; 99% in data set [4]; 89% in data set [6]; -41% in data set [7]. Also, the figures for the “Decrease in cell viability (%)” value in data set [5] (3 μM) and in data set [5] (30 μM) were −1% and 12%, respectively. Also, the Emax at 3 µM in data set [7] was determined as 65%. The Emax at 30 µM in data set [7] was 164%.

Take `COc1ccc(C(=O)C(C)C(=O)CCc2ccc(O)c(OC)c2)cc1` (stereo not shown) [Compound 17, 5-(4-Hydroxy-3-methoxyphenyl)-1-(4-methoxyphenyl)-2-methyl-pentane-1,3-dione]: the inhibition at 3 µM was 6% in data set [1]; -1% in data set [2]; 51% in data set [3]; 58% in data set [4]; 3% in data set [6]; -98% in data set [7]. In addition, the inhibition at 30 µM in data set [1] is 42%; in data set [2] it was 31%; in data set [3] it was 95%; in data set [4], 98%; in data set [6], 29%; in data set [7] it was -22%. For the same compound, the “Decrease in cell viability (%)” value was −1% in data set [5] (3 μM) and 4% in data set [5] (30 μM). In addition, the Emax at 3 µM in data set [7] worked out at 55%. Also, the Emax at 30 µM in data set [7] is 183%.

Take `COc1cc(CCC(=O)C(C)(C)C(=O)c2ccc(C)cc2)ccc1O` [Compound 81, 5-(4-Hydroxy-3-methoxyphenyl)-2,2-dimethyl-1-p-tolylpentane-1,3-dione]: the inhibition at 3 µM was 21% in data set [1]; -2% in data set [2]; 64% in data set [3]; 62% in data set [4]; 22% in data set [6]; 25% in data set [7]. For the same compound, the inhibition at 30 µM is 95% in data set [1]; 55% in data set [2]; 97% in data set [3]; 101% in data set [4]; 94% in data set [6]; -22% in data set [7]. Moreover, the entries for the “Decrease in cell viability (%)” value in data set [5] (3 μM) and in data set [5] (30 μM) were 3% and −7%, respectively. The Emax at 3 µM in data set [7] was 45%. Besides, the Emax at 30 µM in data set [7] came to 104%.

On to `COc1cc(CCC(=O)CC(=O)c2cccc3ccccc23)ccc1O` [Compound 27, 5-(4-Hydroxy-3-methoxylphenyl)-1-(naphthalene-1-yl)-pentane-1,3-dione], for which the inhibition at 3 µM worked out at 1% in data set [1]; 6% in data set [2]; 92% in data set [3]; 92% in data set [4]; 2% in data set [6]; 46% in data set [7]. Besides, the inhibition at 30 µM in data set [1] is 63%; in data set [2] it was 79%; in data set [3], 98%; in data set [4] it was 99%; in data set [6], 68%; in data set [7], -66%. The “Decrease in cell viability (%)” value in data set [5] (3 μM) is recorded as 4%; in data set [5] (30 μM) it was 40%. Also, the Emax at 3 µM in data set [7] was 85%. Also, in data set [7], the Emax at 30 µM was 162%.

Take `COc1cc(CCC(=O)CC(=O)c2ccccc2Cl)ccc1O` [Compound 74, 1-(2-Chlorophenyl)-5-(4-hydroxy-3-methoxyphenyl)pentane-1,3-dione]: the inhibition at 3 µM is 10% in data set [1]; -4% in data set [2]; 60% in data set [3]; 99% in data set [4]; 1% in data set [6]; 15% in data set [7]. In addition, the inhibition at 30 µM came out at 89% in data set [1]; 53% in data set [2]; 98% in data set [3]; 101% in data set [4]; 41% in data set [6]; 6% in data set [7]. The “Decrease in cell viability (%)” value in data set [5] (3 μM) came to 1%; in data set [5] (30 μM) it was 16%. Besides, the Emax at 3 µM in data set [7] came out at 54%. For the same compound, in data set [7], the Emax at 30 µM turned out to be 75%.
